Here are results for 13 compounds from patent US7939546B2, “Quinoline derivatives for modulating DNA methylation” (SuperGen, Inc., priority 2007, dated 2011).

Where a name gives a salt, the structure may show the parent alone. Read-outs that look alike come from different tables or passages of the source.

The test system of data set [1] is CMV-EE210 cell line containing the epigenetically silenced GFP transgene. The data set is described as follows: Cell-based GFP assay for demethylating activity (reactivation of silenced GFP transgene). The note with it: for IC50: read-out: GFP IC50; for GFP Expression Level: test compound 30-50 μM, decitabine at 11 M (so in the source), three days. The method, then:
(§1) The demethylating activity of non-bis-quaternary 4-anilinoquinolines were tested in a cell-based GFP (green fluorescent protein) assay. This assay has a GFP gene regulated by the CMV promoter and is sensitive to the methylation of CpG sites within the promoter. A decrease in methylation resulting from exposure to a methylation inhibitor leads to GFP expression and is readily scored. Specifically, the CMV-EE210 cell line containing the epigenetically silenced GFP transgene was used to assay for reactivation of GFP expression by flow cytometry. CMV-EE210 was made by transfecting NIH 3T3 cells with the pTR-UF/UF1/UF2 plasmid (Zolotuhin et al., 1996), which is comprised of pBS(+) (Stratagene, Inc.) containing a cytomegalovirus (CMV) promoter driving a humanized GFP gene adapted for expression in mammalian cells. After transfection, high-level GFP expressing cells were initially selected by FACS analysis and sorting using a MoFlo cytometer (Cytomation, Inc.). […] To screen for reactivation of CMV-EE210, decitabine (at […]) or a test compound (at a concentration of 30-50 μM) was added to complete medium (phenol red free DMEM (Gibco, Life Technologies) supplemented with 10% fetal bovine serum (Hyclone)). Cells were then seeded to 30% confluence (˜5000 cell/well) in 96 well plate containing the test compounds and grown for three days in at 37° C. in 5% CO2. The plates were examined under a fluorescent microscope using a 450-490 excitation filter (13 filter cube, Leica, Deerfield Ill.). Wells were scored g1 positive if 10% of viable cells express GFP, g2 positive if 30% of viable cells express GFP and g3 if greater than 75% of the viable cells express GFP. GFP IC 50 is the concentration of an inhibitor that (like an IC50) is the dose at which the GFP expression level goes from g3 to g1/2.

For a further data set, the system named is CMV-EE210 cell line. Kind of data set: Toxicity (TD50, cell viability) reported with the GFP assay. To be noted: for TD50: Dose at which cells are >50% viable. The method, then:
as §1

The target of the next data set is DNMT1 (Homo sapiens, UniProt P26358). Kind of data set: Selective depletion of DNMT1 by Western blot in treated HCT116 cells. The format is cell-based. The note with it: for % DNMT1 protein level remaining at 5 µM: HCT-116, 5 μM; for % DNMT1 protein level remaining at 10 µM: HCT-116, 10 μM; for % DNMT1 protein level remaining at 100 µM: HCT-116, 100 μM. The arrangement: Protein extracts (equivalent to 100 μg) were isolated from HCT116 cells; endogenous in cells; host or cells: HCT116. From the text: Biol. 2005, 11, 4727-41.]. For DNMT1, commercially available antibodies from Santa Cruz or New England Biolabs were used.
DNMT1, sequence (P26358 whole entry): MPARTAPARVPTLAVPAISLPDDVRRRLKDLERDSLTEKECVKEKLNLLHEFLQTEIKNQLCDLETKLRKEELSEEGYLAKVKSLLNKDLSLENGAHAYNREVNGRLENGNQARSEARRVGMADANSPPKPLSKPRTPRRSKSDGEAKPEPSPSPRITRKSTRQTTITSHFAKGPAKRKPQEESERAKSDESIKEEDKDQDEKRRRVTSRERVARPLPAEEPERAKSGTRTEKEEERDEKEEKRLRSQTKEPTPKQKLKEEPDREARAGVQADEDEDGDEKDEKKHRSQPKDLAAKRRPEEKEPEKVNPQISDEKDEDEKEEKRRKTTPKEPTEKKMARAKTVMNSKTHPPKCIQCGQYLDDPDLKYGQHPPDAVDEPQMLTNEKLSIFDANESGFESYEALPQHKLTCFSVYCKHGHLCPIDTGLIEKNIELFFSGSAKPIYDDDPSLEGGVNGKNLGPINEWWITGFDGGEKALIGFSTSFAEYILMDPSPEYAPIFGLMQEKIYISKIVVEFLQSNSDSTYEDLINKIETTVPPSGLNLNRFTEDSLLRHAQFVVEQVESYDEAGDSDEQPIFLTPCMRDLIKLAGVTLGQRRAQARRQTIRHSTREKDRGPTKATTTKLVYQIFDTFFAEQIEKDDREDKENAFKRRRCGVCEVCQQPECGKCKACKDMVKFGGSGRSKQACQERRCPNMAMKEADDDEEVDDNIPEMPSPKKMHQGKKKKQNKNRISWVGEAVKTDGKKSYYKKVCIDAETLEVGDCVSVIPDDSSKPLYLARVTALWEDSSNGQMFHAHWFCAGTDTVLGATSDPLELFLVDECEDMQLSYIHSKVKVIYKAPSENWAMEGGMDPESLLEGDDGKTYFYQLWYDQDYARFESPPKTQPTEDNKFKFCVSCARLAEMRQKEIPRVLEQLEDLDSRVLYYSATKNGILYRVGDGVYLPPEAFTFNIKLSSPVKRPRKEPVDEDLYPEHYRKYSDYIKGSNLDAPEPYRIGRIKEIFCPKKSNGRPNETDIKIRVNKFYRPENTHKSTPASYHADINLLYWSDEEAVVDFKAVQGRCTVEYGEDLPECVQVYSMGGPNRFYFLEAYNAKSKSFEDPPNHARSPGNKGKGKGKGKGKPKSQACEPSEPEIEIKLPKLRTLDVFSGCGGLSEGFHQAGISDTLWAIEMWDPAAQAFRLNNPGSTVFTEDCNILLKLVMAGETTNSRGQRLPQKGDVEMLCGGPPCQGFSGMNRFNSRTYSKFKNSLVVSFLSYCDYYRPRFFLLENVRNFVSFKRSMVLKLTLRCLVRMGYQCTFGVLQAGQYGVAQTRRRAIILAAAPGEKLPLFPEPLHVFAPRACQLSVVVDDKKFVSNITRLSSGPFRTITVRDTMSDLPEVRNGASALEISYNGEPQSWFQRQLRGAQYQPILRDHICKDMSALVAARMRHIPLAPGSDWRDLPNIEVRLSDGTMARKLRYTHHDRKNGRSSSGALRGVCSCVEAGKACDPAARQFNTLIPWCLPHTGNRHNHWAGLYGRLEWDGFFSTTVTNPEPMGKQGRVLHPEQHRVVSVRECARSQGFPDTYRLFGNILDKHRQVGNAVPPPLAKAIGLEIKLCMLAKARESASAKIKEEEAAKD
For orientation: Immunoblotting shows a protein as a band on a membrane.

Where [2] appears, read: dose at which the GFP expression level goes from g3 to g1/2.

Turning to `C[n+]1ccc(Nc2cccc(C(=O)Nc3ccc(Nc4ccnc5ccccc45)cc3)c2)cc1.Cl.[Cl-]` [Cpd. C, 4-[4-({3-[(1-methyl-4-pyridiniumyl)amino]benzoyl}amino)anilino]quinolinium dichloride], in data set [1] (setting [2]), the half-maximal inhibitory concentration (IC50) is 50 µM. Moreover, the “GFP Expression Level” value in data set [1] was “g1 (g1 positive if 10% of viable cells express GFP)”. In the data set on CMV-EE210 cell line, this compound returned a TD50 of 25 µM. For the same compound, the “% DNMT1 Level” value at DNMT1 (5 μM) was found to be 31%; at DNMT1 (10 μM), 33%; on DNMT1 (100 μM) it was 34%.

Take `CN(C)c1ccc2c(Nc3ccc(NC(=O)c4cccc(Nc5cc[n+](C)cc5)c4)cc3)ccnc2c1` [Cpd. CC, 7-(dimethylamino)-4-[4-({3-[(1-methyl-4-pyridiniumyl)amino]benzoyl}amino)aniline]quinolinium dichloride]: the melting point was 188 °C (dec.). Further, in data set [1], the IC50 is 6 µM. Besides, in the data set on CMV-EE210 cell line, the “toxicity relative to decitabine” value is recorded as “less than one-half as toxic as decitabine” and the TD50 worked out at 25 µM. Further, on DNMT1, the % DNMT1 protein level remaining at 5 µM was found to be 65%, the % DNMT1 protein level remaining at 10 µM stood at 81% and the % DNMT1 protein level remaining at 100 µM amounted to 26%.

On to `C[n+]1ccc(Nc2ccc(C(=O)Nc3ccc(Nc4ccnc5ccccc45)cc3)cc2)cc1.Cl.[Cl-]` [Cpd. D, 4-[4-({4-[(1-methyl-4-pyridiniumyl)amino]benzoyl}amino)anilino]quinolinium dichloride], for which the “GFP Expression Level” value in data set [1] is listed as “g1 (g1 positive if 10% of viable cells express GFP)”. Also, the TD50 in the data set with CMV-EE210 cell line is 12.5 µM. Moreover, the “% DNMT1 Level” value is reported as 131% on DNMT1 (5 μM), 103% on DNMT1 (10 μM) and 74% at DNMT1 (100 μM).

With `Cc1cc(Nc2ccc(NC(=O)c3ccc(Nc4ccnc5ccccc45)cc3)cc2)nc(N)n1` [Cpd. E, N-(4-(2-amino-6-methylpyrimidin-4-ylamino)phenyl)-4-(quinolin-4-ylamino)benzamide hydrochloride], the 50% inhibitory concentration (IC50) in data set [1] turned out to be 12 µM. The “GFP Expression Level” value in data set [1] is recorded as “g1 (g1 positive if 10% of viable cells express GFP)”. The same compound showed a TD50 in the data set with CMV-EE210 cell line of 25 µM. Moreover, the figures for the “% DNMT1 Level” value on DNMT1 (5 μM) and on DNMT1 (10 μM) were 11% and 0.5%, respectively.

`C[n+]1ccc(Nc2ccc(NC(=O)c3ccc(Nc4ccnc5ccc(N)cc45)cc3)cc2)cc1` [Cpd. L, 4-[4-({4-[(6-ammonio-4-quinolinyl)amino]benzoyl}amino)anilino]-1-methylpyridinium dichloride] gave a melting point of 262 to 266 °C. In data set [1], the IC50 worked out at 50 µM and the “GFP Expression Level” value is “g2 (g2 positive if 30% of viable cells express GFP)”. The TD50 with CMV-EE210 cell line came out at 50 µM. In addition, at DNMT1, the % DNMT1 protein level remaining at 5 µM stood at 144%, the % DNMT1 protein level remaining at 10 µM is 145% and the % DNMT1 protein level remaining at 100 µM was determined as 128%.

`C[n+]1ccc(Nc2ccc(C(=O)Nc3ccc(Nc4ccnc5ccc(N)cc45)cc3)cc2)cc1` [Cpd. N, 4-[4-({4-[(6-amino-4-quinolinyl)amino]anilino}carbonyl)anilino]-1-methylpyridinium chloride]: in data set [1], the 50% inhibitory concentration (IC50) turned out to be 100 µM and the “GFP Expression Level” value is recorded as “g2 (g2 positive if 30% of viable cells express GFP)”. Moreover, the TD50 in the data set with CMV-EE210 cell line was 50 µM. On DNMT1, the % DNMT1 protein level remaining at 5 µM came out at 160%, the % DNMT1 protein level remaining at 10 µM was 152% and the % DNMT1 protein level remaining at 100 µM stood at 130%.

In turn, `CN(C)c1ccc2nccc(Nc3ccc(C(=O)Nc4ccc(Nc5cc[n+](C)cc5)cc4)cc3)c2c1` [Cpd. O, 4-[4-({4-[(6-dimethylammonio-4-quinolinyl)amino]benzoyl}amino)-anilino]-1-methylpyridinium dichloride] gave a melting point of 242 to 246 °C. Moreover, the IC50 in data set [1] is 12.5 µM. In the data set with CMV-EE210 cell line, the “toxicity relative to decitabine” value is given as “less than one-half as toxic as decitabine” and the TD50 amounted to 50 µM. At DNMT1, the % DNMT1 protein level remaining at 5 µM was found to be 84%, the % DNMT1 protein level remaining at 10 µM turned out to be 150% and the % DNMT1 protein level remaining at 100 µM was found to be 142%.

On to `Cc1cc(Nc2ccc(NC(=O)c3ccc(Nc4ccnc5ccc(N(C)C)cc45)cc3)cc2)nc(N)n1.Cl` [Cpd. P, N-[4-(2-amino-6-methylpyrimidin-4-ylamino)phenyl]-4-(6-(dimethylamino)quinolin-4-ylamino)benzamide hydrochloride], for which the melting point fell in the range of 260 to 265 °C. For the same compound, in data set [1] (setting [2]), the 50% inhibitory concentration (IC50) came out at 50 µM. Besides, in the data set on CMV-EE210 cell line, the “toxicity relative to decitabine” value is “less than one-half as toxic as decitabine” and the TD50 was 25 µM. Also, on DNMT1, the % DNMT1 protein level remaining at 5 µM amounted to 57%, the % DNMT1 protein level remaining at 10 µM turned out to be 91% and the % DNMT1 protein level remaining at 100 µM turned out to be 11%.

In turn, `CN(C)c1ccc2nccc(Nc3ccc(C(=O)Nc4cccc(Nc5cc[n+](C)cc5)c4)cc3)c2c1` [Cpd. Q, 6-(dimethylamino)-4-[4-({3-[(1-methyl-4-pyridiniumyl)amino]anilino}carbonyl)anilino]quinolinium dichloride] returned a melting point greater than 300 °C. Moreover, the half-maximal inhibitory concentration (IC50) in data set [1] is 12.5 µM. In addition, in the data set on CMV-EE210 cell line, the “toxicity relative to decitabine” value is “less than one-half as toxic as decitabine” and the TD50 is 25 µM. Moreover, on DNMT1, the % DNMT1 protein level remaining at 5 µM stood at 219%, the % DNMT1 protein level remaining at 10 µM was 93% and the % DNMT1 protein level remaining at 100 µM was determined as 10%.

As for `C[n+]1ccc(Nc2cccc(C(=O)Nc3ccc(Nc4ccnc5cc(N)ccc45)cc3)c2)cc1.Cl.[Cl-]` [Cpd. X, 7-amino-4-[4-({3-[(1-methyl-4-pyridiniumyl)amino]benzoyl}amino)anilino]quinolinium dichloride], the IC50 in data set [1] (setting [2]) came out at 50 µM. Moreover, the “GFP Expression Level” value in data set [1] is listed as “g2 (g2 positive if 30% of viable cells express GFP)”. For the same compound, in the data set on CMV-EE210 cell line, the TD50 was determined as 25 µM. Further, the entries for the “% DNMT1 Level” value at DNMT1 (5 μM), on DNMT1 (10 μM) and at DNMT1 (100 μM) were 49%, 98% and 73%, respectively.

For the compound `C[n+]1ccc(Nc2ccc(C(=O)Nc3ccc(Nc4ccnc5cc(N)ccc45)cc3)cc2)cc1` [Cpd. Y, 4-[4-({4-[(7-amino-4-quinolinyl)amino]anilino}carbonyl)anilino]-1-methylpyridinium chloride], in data set [1], the IC50 was found to be 100 µM and the “GFP Expression Level” value is “g1 (g1 positive if 10% of viable cells express GFP)”. Also, the TD50 with CMV-EE210 cell line was determined as 25 µM. At DNMT1, the % DNMT1 protein level remaining at 5 µM was found to be 93%, the % DNMT1 protein level remaining at 10 µM came out at 63% and the % DNMT1 protein level remaining at 100 µM amounted to 77%.

On to `CN(C)c1ccc2c(Nc3ccc(C(=O)Nc4cccc(Nc5cc[n+](C)cc5)c4)cc3)ccnc2c1.Cl.[Cl-]` [Cpd. Z, 7-(dimethylamino)-4-[4-({3-[(1-methyl-4-pyridiniumyl)amino]anilino}carbonyl)anilino]quinolinium dichloride], for which the IC50 in data set [1] (setting [2]) is 1 µM. Also, the “toxicity relative to decitabine” value in the data set on CMV-EE210 cell line is given as “less than one-half as toxic as decitabine”. In the data set on CMV-EE210 cell line, this compound came in with a TD50 of 25 µM. In addition, the “% DNMT1 Level” value on DNMT1 (5 μM) is recorded as 83%; on DNMT1 (10 μM), 115%; at DNMT1 (100 μM), 87%.

In the case of `Nc1ncn([C@H]2C[C@H](O)[C@@H](CO)O2)c(=O)n1` [Decitabine, 5-aza-2′-deoxycytidine, reference compound], the half-maximal inhibitory concentration (IC50) in data set [1] (setting [2]) was 0.39 µM. Besides, the TD50 with CMV-EE210 cell line was 12.5 µM. Further, the % DNMT1 protein level remaining at 5 µM on DNMT1 lay in the range of 0 to 5%.

One may read the IC50 as the point on the concentration scale where inhibition reaches its midpoint. Usually melting point stands for the temperature, or range, at which the solid turns liquid.
